Measured values taken from patent publication US12077503B2, “Substituted cyclic amides and their use as herbicides” (FMC CORPORATION, priority 2015, dated 2024).

Experiments:
Type in all cases: in vivo
Kochia (Kochia scoparia) [1] = test: Test A preemergence; conditions: Bassia scoparia, pre-emergence, 240 h, 0 to 100 scale where 0 is no effect and 100 is complete control, read-out: Kochia plant response rating
Method in brief: (§1)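 Ratings of 0 (no effect) to 100 (complete control) come from visual comparison with untreated controls roughly 10 d after treatment. Test chemicals, formulated in a non-phytotoxic solvent mixture with surfactant, were applied either as a preemergence directed soil spray on seeded soil or postemergence to one- to two-leaf plants 2 to 10 cm tall.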

[2] = tested on: barnyardgrass (Echinochloa crus-galli); test: Test A preemergence; conditions: Echinochloa crus-galli, pre-emergence, 240 h, 0 to 100 scale where 0 is no effect and 100 is complete control, read-out: Barnyardgrass plant response rating
Method in brief: as §1

[3] = tested on: giant foxtail (Setaria faberii); test: Test A preemergence; conditions: Setaria faberi, pre-emergence, 240 h, 0 to 100 scale where 0 is no effect and 100 is complete control, read-out: Foxtail, Giant plant response rating
Method in brief: as §1

[4] = tested on: pigweed (Amaranthus retroflexus); test: Test A preemergence; conditions: Amaranthus retroflexus, pre-emergence, 240 h, 0 to 100 scale where 0 is no effect and 100 is complete control, read-out: Pigweed plant response rating
[5] = tested on: ragweed (common ragweed, Ambrosia elatior); test: Test A preemergence; conditions: Ambrosia artemisiifolia, pre-emergence, 240 h, 0 to 100 scale where 0 is no effect and 100 is complete control, read-out: Ragweed plant response rating
Method in brief: as §1

[6] = tested on: ryegrass, Italian (Italian ryegrass, Lolium multiflorum); test: Test A preemergence; conditions: Lolium multiflorum, pre-emergence, 240 h, 0 to 100 scale where 0 is no effect and 100 is complete control, read-out: Ryegrass, Italian plant response rating
Method in brief: as §1

[7] = tested on: Galium (catchweed bedstraw, Galium aparine); test: Test A postemergence; conditions: Galium, post-emergence, 240 h, read-out: Galium plant response rating (0 to 100 scale)
Method in brief: as §1

Kochia (Kochia scoparia) [8] = test: Test A postemergence; conditions: Bassia scoparia, post-emergence, 240 h, read-out: Kochia plant response rating (0 to 100 scale)
Method in brief: as §1

[9] = tested on: barnyardgrass (Echinochloa crus-galli); test: Test A postemergence; conditions: Echinochloa crus-galli, post-emergence, 240 h, read-out: Barnyardgrass plant response rating (0 to 100 scale)
Method in brief: as §1

[10] = tested on: blackgrass (Alopecurus myosuroides); test: Test A postemergence; conditions: Alopecurus myosuroides, post-emergence, 240 h, read-out: Blackgrass plant response rating (0 to 100 scale)
Method in brief: as §1

corn (Zea mays) = test: Test A postemergence; conditions: Zea mays, post-emergence, 240 h, read-out: Corn plant response rating (0 to 100 scale)
Method in brief: as §1

[11] = tested on: giant foxtail (Setaria faberii); test: Test A postemergence; conditions: Setaria faberi, post-emergence, 240 h, read-out: Foxtail, Giant plant response rating (0 to 100 scale)
Method in brief: as §1

[12] = tested on: pigweed (Amaranthus retroflexus); test: Test A postemergence; conditions: Amaranthus retroflexus, post-emergence, 240 h, read-out: Pigweed plant response rating (0 to 100 scale)
Method in brief: as §1

[13] = tested on: ragweed (common ragweed, Ambrosia elatior); test: Test A postemergence; conditions: Ambrosia artemisiifolia, post-emergence, 240 h, read-out: Ragweed plant response rating (0 to 100 scale)
Method in brief: as §1

[14] = tested on: ryegrass, Italian (Italian ryegrass, Lolium multiflorum); test: Test A postemergence; conditions: Lolium multiflorum, post-emergence, 240 h, read-out: Ryegrass, Italian plant response rating (0 to 100 scale)
Method in brief: as §1

[15] = tested on: wheat (Triticum aestivum); test: Test A postemergence; conditions: Triticum aestivum, post-emergence, 240 h, read-out: Wheat plant response rating (0 to 100 scale)
Method in brief: as §1

[16] = tested on: barnyardgrass (Echinochloa crus-galli); test: Test B flooded paddy test; conditions: Echinochloa crus-galli, 250 g ai/ha, Flood; 0 to 100 scale where 0 is no effect and 100 is complete control; read-out: Barnyardgrass plant response rating
Method in brief: (§2)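 Percent control, visually estimated after 13–15 d in the greenhouse on a 0–100 basis, compares treated pots with untreated ones; compound was put into paddy water 3 cm above the soil when plants had two leaves.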

[17] = tested on: ducksalad (Heteranthera limosa); test: Test B flooded paddy test; conditions: Heteranthera limosa, 250 g ai/ha, Flood; 0 to 100 scale where 0 is no effect and 100 is complete control; read-out: Ducksalad plant response rating
Method in brief: as §2

rice (Oryra sativa) = test: Test B flooded paddy test; conditions: Oryza sativa, 250 g ai/ha, Flood; 0 to 100 scale where 0 is no effect and 100 is complete control; read-out: Rice plant response rating
Method in brief: as §2

[18] = tested on: sedge, umbrella (small-flower umbrella sedge, Cyperus difformis); test: Test B flooded paddy test; conditions: Cyperus difformis, 250 g ai/ha, Flood; 0 to 100 scale where 0 is no effect and 100 is complete control; read-out: Sedge, Umbrella plant response rating
Method in brief: as §2

[19] = 125 g ai/ha, preemergence, visual injury rating, approximately 10 d
[20] = 125 g ai/ha, postemergence, visual injury vs untreated controls after approx. 10 d, 0 = no effect, 100 = complete control
[21] = Postemergence, 31 g ai/ha, 0 is no effect, 100 is complete control

Question: With `Cc1cc([C@H]2CN(C)C(=O)[C@@H]2C(=O)Nc2cccc(F)c2F)no1` [Compound 1237] as the compound, how does the pest or weed control at 31 g/ha (Kochia (Kochia scoparia) [1]; 31 g ai/ha, Preemergence) read?
Answer: 0%

Question: And the pest or weed control at 125 g/ha (Kochia (Kochia scoparia) [1]; [19])?
Answer: 0%

Question: And the pest or weed control at 31 g/ha ([2]; 31 g ai/ha, Preemergence)?
Answer: 0%

Question: And the pest or weed control at 125 g/ha [2, 19]?
Answer: 70%

Question: What about the pest or weed control at 31 g/ha ([3]; 31 g ai/ha, Preemergence) of the same compound?
Answer: 20%

Question: And the pest or weed control at 125 g/ha [3, 19]?
Answer: 60%

Question: And the pest or weed control at 31 g/ha ([4]; 31 g ai/ha, Preemergence)?
Answer: 0%

Question: What about the pest or weed control at 125 g/ha [4, 19] of the same compound?
Answer: 0%

Question: And the pest or weed control at 31 g/ha ([5]; 31 g ai/ha, Preemergence)?
Answer: 0%

Question: What about the pest or weed control at 125 g/ha [5, 19] of the same compound?
Answer: 0%

Question: And the pest or weed control at 31 g/ha ([6]; 31 g ai/ha, Preemergence)?
Answer: 0%

Question: What about the pest or weed control at 125 g/ha [6, 19] of the same compound?
Answer: 0%

Question: And the pest or weed control at 125 g/ha [7, 20]?
Answer: 0%

Question: And the pest or weed control at 31 g/ha [7, 21]?
Answer: 0%

Question: And the pest or weed control at 125 g/ha (Kochia (Kochia scoparia) [8]; [20])?
Answer: 0%

Question: What about the pest or weed control at 31 g/ha (Kochia (Kochia scoparia) [8]; [21]) of the same compound?
Answer: 0%

Question: And the pest or weed control at 125 g/ha [9, 20]?
Answer: 20%

Question: What about the pest or weed control at 31 g/ha [9, 21] of the same compound?
Answer: 0%

Question: And the pest or weed control at 125 g/ha [10, 20]?
Answer: 0%

Question: What about the pest or weed control at 31 g/ha [10, 21] of the same compound?
Answer: 0%

Question: And the plant injury at 125 g/ha (corn (Zea mays); [20])?
Answer: 0%

Question: What about the plant injury at 31 g/ha (corn (Zea mays); [21]) of the same compound?
Answer: 0%

Question: What about the pest or weed control at 125 g/ha [11, 20] of the same compound?
Answer: 20%

Question: What about the pest or weed control at 31 g/ha [11, 21] of the same compound?
Answer: 0%

Question: And the pest or weed control at 125 g/ha [12, 20]?
Answer: 0%

Question: And the pest or weed control at 31 g/ha [12, 21]?
Answer: 0%

Question: And the pest or weed control at 125 g/ha [13, 20]?
Answer: 0%

Question: And the pest or weed control at 31 g/ha [13, 21]?
Answer: 0%

Question: What about the pest or weed control at 125 g/ha [14, 20] of the same compound?
Answer: 0%

Question: What about the pest or weed control at 31 g/ha [14, 21] of the same compound?
Answer: 0%

Question: What about the plant injury at 125 g/ha [15, 20] of the same compound?
Answer: 0%

Question: And the plant injury at 31 g/ha [15, 21]?
Answer: 0%

Question: What about the pest or weed control at 250 g/ha [16] of the same compound?
Answer: 0%

Question: What about the pest or weed control at 250 g/ha [17] of the same compound?
Answer: 65%

Question: And the pest or weed control at 250 g/ha (rice (Oryra sativa))?
Answer: 0%

Question: And the pest or weed control at 250 g/ha [18]?
Answer: 0%
